In patent US4684650A, “Antihypertensive fluorophenylindanyl imidazolidinoneethylpiperazines” (priority 1984, dated 1987):
Read-outs that look alike come from different tables or passages of the source.

Tests used:
[1] = test system: Quipazine-induced head shakes; experiment: Quipazine-induced head shakes; format: in vivo; settings: Rattus norvegicus, sc, rats, 2 hours before quipazine 5 mg/kg s.c.; read-out: Quipazine antg. (Q) ED50
Method: The rats were pretreated subcutaneously with test compound or saline 2 hours before injection of quipazine (5 mg/kg s.c.). The rats were then placed individually in perspex observation cages (12×25 cm), and in standard experiments the number of head shakes (involving the head and sometimes part of the body) were counted for 10 min., 30-40 min. after quipazine, where the effect was maximal. The number of head shakes in each dose group were expressed in percent of those induced in the control group, and ED50 values were calculated by log-probit analysis of results from at least 3 doses.
(§1) Each group consisted of 4-12 rats.

5-HT pressor responses = experiment: Antagonism to 5-HT pressor responses in pithed rats; format: in vivo; settings: for change in vivo at 0.02 mg/kg / ED50: Rattus norvegicus, iv; for ED50: read-out: Effects on pressor response of 5-HT, ED50, pithed rats, jugular vein
Method: (§2) The rat is anaesthetized with ether, tracheotomized, artificial respired and pithed. The knitting-needle is introduced through the right orbita into the cranial cavity and passed through foramen magnum into the spinal canal as far as possible. The spinal cord is destroyed by turning the needle. After vagotomi both carotides are ligated and a catheter placed in the right one for pressure recording. The rat is adrenalectomized. […] The initial and post medication mean pressor effect is calculated, and the mean pressor effect is calculated as % of the initial value. Two to five preparations are employed for each dose level. The ED50 is determined.

[2] = test system: spontaneous hypertensive rats (SHR); experiment: Antihypertensive effect in spontaneous hypertensive rats (SHR); format: in vivo; settings: for change in vivo at 5 mg/kg / ED10: Rattus norvegicus, ip; for change in vivo at 5 mg/kg: 1 h
Method: Antihypertensive effect in spontaneous hypertensive rats (SHR)
The femoral artery of male SHR is cannulated in anaestesia for blood pressure recordings. After a stabilization period of 11/2 h after discontinuation of the anaesthesia initial blood pressure curves are recorded and the systolic (SAP)/diastolic (DAP) pressure determined (-20, -10, 0, min. p.i.) Test substance is injected i.p. and the pressure curve recorded for one hour. The change in SAP/DAP is calculated in percent at mean initial values at different times (10, 20, 30, 40, 50 and 60 minutes after injection). At least two SHR are used per dose level. The maximum change is used for estimation of the drug effect.

[3] = test system: phenylephrine pressor responses; experiment: Antagonism to phenylephrine pressor responses in pithed rats; format: in vivo; settings: for change in vivo at […] / ED50: Rattus norvegicus, iv; for change in vivo at […]: read-out: Effects on pressor response of Phenylephrine, % eff. of […], pithed rats, […], jugular vein, read-out: Effects on pressor response of Phenylephrine, % eff. of 0.31 mg/kg; for ED50: read-out: Effects on pressor response of Phenylephrine, ED50; for Phenylephr. antg./5-HT antg. (ratio): ratio of phenylephrine ED50 to 5-HT ED50
Method: as §2

[4] = test system: methylphenidate induced stereotypies; experiment: Methylphenidate Antagonism; format: in vivo, mice; settings: Mus musculus, ip, read-out: MePh antg. ED50, i.p., mice, 2 hours before methylphenidate 60 mg/kg s.c.
Method: The experiments were made as described by Pedersen and Christensen (1972) Acta Pharmacol. et Toxicol. 31, 488-496.--Briefly, test compounds or saline were injected i.p. 2 hours before methylphenidate, 60 mg/kg s.c. 3 pairs of mice were used for each dose level. After methylphenidate injection the mice were placed in observation cages for one hour. The cages were placed on corrugated paper, the corrugation facing upwards.

5-HT2 receptors = molecular target: T1, 5-HT2 receptors (Rattus norvegicus, UniProt P14842); experiment: 3H-spiroperidol binding to 5-HT2 receptors; settings: rat whole cortex, 0.5 nM 3H-spiroperidol, 0.3 μM sulpiride; read-out: 3H-SPI binding 5-HT2 IC50
T1 construct: Rat whole cortex was homogenized by an Ultra Turrax homogenizer; from tissue; host or cells: rat whole cerebral cortex, crude washed membranes
T1 sequence (P14842 whole entry): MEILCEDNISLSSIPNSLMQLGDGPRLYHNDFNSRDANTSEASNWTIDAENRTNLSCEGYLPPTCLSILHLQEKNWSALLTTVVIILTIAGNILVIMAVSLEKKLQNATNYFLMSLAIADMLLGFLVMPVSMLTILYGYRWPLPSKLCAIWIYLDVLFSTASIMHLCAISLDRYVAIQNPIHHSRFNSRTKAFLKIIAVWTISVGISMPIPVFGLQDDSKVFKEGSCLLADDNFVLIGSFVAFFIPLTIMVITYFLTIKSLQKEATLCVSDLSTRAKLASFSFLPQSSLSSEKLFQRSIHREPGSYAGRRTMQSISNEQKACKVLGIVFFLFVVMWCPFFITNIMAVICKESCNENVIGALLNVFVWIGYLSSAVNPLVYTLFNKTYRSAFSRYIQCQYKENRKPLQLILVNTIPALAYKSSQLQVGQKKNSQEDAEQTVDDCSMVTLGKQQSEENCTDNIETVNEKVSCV
Method: ^3 H-spiroperidol binding to 5-HT2 receptors.
Rat whole cortex was homogenized by an Ultra Turrax homogenizer in 100 vol. of 50 mM Tris buffer pH 7.7. The homogenate was centrifuged at 20,000 g for 10 minutes at 4° C. The pellet was rehomogenized in another volume of buffer and centrifuged as mentioned above. The final pellet was rehomogenized in 50 mM Tris buffer pH 7.7 containing 120 mM NaCl, 5 mM KCl, 2 mM CaCl2 and 1 mM MgCl2 (ion mix) in a volume corresponding to 12.5 mg original tissue per ml.
Test drugs were dissolved in water; ^3 H-spiroperidol (NEN, 28-30 Ci/mmol) was diluted in 3 μM sulpiride, and 800 μl membrane suspension were added. Final concentration of ligand and sulpiride were 0.5 nM and 0.3 μM, respectively. The samples were incubated at 37° C. for 10 min. The samples were then filtered under vacuum through Whatman GF/B glass-fiber filters. The tubes were then rinsed with 5 ml incubation buffer, which was poured on the filters. The filters were finally washed twice with 5 ml buffer and placed in counting vials. After addition of 5 ml scintillation fluid (Lumagel) radioactivity was estimated by liquid scintillation counting. Non-specific binding was obtained by adding Mianserin (1 μM) to separate samples. Each drug was tested at least twice at 5 concentrations in triplicate. IC50-values were determined from log concentration-response curves.--The presence of sulpiride excluded binding to dopamine D-2 receptors.

[5] = test system: 1-5-HTP-induced head shakes; experiment: 1-5-HTP-induced head shakes; format: in vivo; settings: rats, 1-5-HTP 75 mg/kg i.p. after citalopram; for 1-5-HTP-antg. ED50: s.c.; for ED50: Rattus norvegicus, sc, read-out: 1-5-HTP-antg. ED50
Method: The rats were pretreated subcutaneously with test compound or saline simultaneously with or 90 min before injection of citalopram (10 mg/kg s.c.).
as §1

[6] = pithed rats, 0.02 mg/kg, jugular vein, read-out: Effects on pressor response of 5-HT, % eff. of 0.02 mg/kg
[7] = 5 mg/kg ip, diastolic pressure (DAP), max change within one hour, read-out: Antihypertensive eff. SHR, max eff. in % of 5 mg/kg ip, DAP
[8] = 5 mg/kg ip, systolic pressure (SAP), max change within one hour, read-out: Antihypertensive eff. SHR, max eff. in % of 5 mg/kg ip, SAP
[9] = pithed rats, 0.02 mg/kg, jugular vein
[10] = 5 mg/kg ip, diastolic pressure (DAP), max change within one hour
[11] = 5 mg/kg ip, systolic pressure (SAP), max change within one hour
[12] = read-out: Antihypertensive eff. SHR, max eff. in % of 5 mg/kg ip, DAP, 5 mg/kg ip, diastolic pressure (DAP), max change within one hour
[13] = read-out: Antihypertensive eff. SHR, max eff. in % of 5 mg/kg ip, SAP, 5 mg/kg ip, systolic pressure (SAP), max change within one hour
[14] = read-out: Effects on pressor response of 5-HT, % eff. of 0.02 mg/kg, pithed rats, 0.02 mg/kg, jugular vein

SMILES	ED50 [1] [µmol/kg]	change in vivo at 0.02 mg/kg (5-HT pressor responses; [6]) [%]	change in vivo at 5 mg/kg [2, 7] [%]	change in vivo at 5 mg/kg [2, 8] [%]	change in vivo at […] [3] [%]	ED50 [4] [µmol/kg]	IC50 (5-HT2 receptors) [nM]	ED50 [3] [µmol/kg]	Phenylephr. antg./5-HT antg. (ratio) ([3]; pithed rats)	ED50 (5-HT pressor responses) [µmol/kg]	change in vivo at 5 mg/kg [2, 12] [%]	change in vivo at 5 mg/kg [2, 13] [%]	further results
Fc1ccc([C@@H]2C[C@@H](N3CCN(CCN4CCCC4=S)CC3)c3cc(Cl)ccc32)cc1 (relative stereo) [compound 29, (±)Trans-1-[3-(4-fluorophenyl)-6-chlorindan-1-yl]-4-[2-(2-pyrrolidinthion-1-yl)ethyl]piperazine]	< 0.17	-88	-4	-5	8								
O=C1NCCN1CCN1CCN([C@@H]2C[C@@H](c3ccc(F)cc3)c3ccc(Cl)cc32)CC1 (single isomer, unassigned) [+20, Trans-1-[3-(4-fluorophenyl)-6-chloroindan-1-yl]-4-[2-(2-imidazolidinon-1-yl)ethyl]piperazine, L(+)tartrate]	0.028					49							Effects on pressor response of 5-HT, % eff. of 0.02 mg/kg (5-HT pressor responses; [9]): -92%; Antihypertensive eff. SHR, max eff. in % of 5 mg/kg ip, DAP [2, 10]: -45%; Antihypertensive eff. SHR, max eff. in % of 5 mg/kg ip, SAP [2, 11]: -29%; Effects on pressor response of Phenylephrine, % eff. of […] ([3]; pithed rats, […], jugular vein): -34%
Fc1ccc([C@@H]2C[C@@H](N3CCN(CCN4CCNC4=S)CC3)c3cc(Cl)ccc32)cc1 (relative stereo) [compound 28]	0.017	-93	-10	-6	-22	4.5							
O=C1CCCN1CCN1CCN([C@@H]2C[C@@H](c3ccc(F)cc3)c3ccc(Cl)cc32)CC1 (relative stereo) [compound 21]	0.079	-83	-14	-11	3	11							
O=C1OCCN1CCN1CCN([C@@H]2C[C@@H](c3ccc(F)cc3)c3ccc(Cl)cc32)CC1 (relative stereo) [compound 22]	0.12	-77	-21	-17	-5	2.8							
O=C1NCCN1CCN1CCN([C@@H]2C[C@@H](c3ccc(F)cc3)c3ccc(F)cc32)CC1 (single isomer, unassigned) [+2, (+)Trans-1-[3-(4-fluorophenyl)-6-fluoroindan-1-yl]-4-[2-(2-imidazolidinon-1-yl)ethyl]piperazine]						> 61	4.3	1.43	143				1-5-HTP-antg. ED50 [5]: 0.10 µmol/kg; Effects on pressor response of 5-HT, ED50 (5-HT pressor responses; pithed rats, jugular vein): 0.010 µmol/kg; Antihypertensive eff. SHR, max eff. in % of 5 mg/kg ip, DAP [2, 10]: -40%; Antihypertensive eff. SHR, max eff. in % of 5 mg/kg ip, SAP [2, 11]: -31%; ED10 ([2]; read-out: Antihypertensive eff. SHR, ED10 DAP): 0.8 µmol/kg; ED10 ([2]; read-out: Antihypertensive eff. SHR, ED10 SAP): 1.6 µmol/kg
CN1CCN(CCN2CCN([C@@H]3C[C@@H](c4ccc(F)cc4)c4ccc(F)cc43)CC2)C1=O (single isomer, unassigned) [+3, (+)Trans-1-[3-(4-fluorophenyl)-6-fluoroindan-1-yl]-4-[2-(3-methyl-2-imidazolidinon-1-yl)ethyl]piperazine]						> 91	1.1	2.25	563	0.004	-52	-38	1-5-HTP-antg. ED50 [5]: 0.023 µmol/kg; Effects on pressor response of 5-HT, % eff. of 0.02 mg/kg (5-HT pressor responses; [9]): -89%
Fc1ccc([C@@H]2C[C@@H](N3CCN(CCN4CCNC4=S)CC3)c3cc(F)ccc32)cc1 (relative stereo) [compound 24, Trans-1-[3-(4-fluorophenyl)-6-fluoroindan-1-yl]-4-[2-(2-imidazolidinthion-1-yl)ethyl]piperazine]						25	5.2	3.7	370	0.01	-20	-10	ED50 [5]: 0.13 µmol/kg; change in vivo at 0.02 mg/kg (5-HT pressor responses; [14]): -88%
CN1CCN(CCN2CCN([C@@H]3C[C@@H](c4ccc(F)cc4)c4ccc(F)cc43)CC2)C1=O (relative stereo) [compound 3]						> 78	3.4	14	1400	0.01	-13	-11	ED50 [5]: 0.08 µmol/kg; change in vivo at 0.02 mg/kg (5-HT pressor responses; [14]): -87%
